ChEMBL document CHEMBL5236644, “Multitargeting approaches to cognitive impairment: Synthesis of aryl-alkylpiperazines and assessment at cholinesterases, histamine H3 and dopamine D3 receptors” (Bioorg Med Chem, 2023)

Legend:
[1] = biological target: Cholinesterase (Equus caballus, UniProt P81908); assay: Inhibition of equine BChE using acetylthiocholine chloride as substrate preincubated for 15 mins followed by substrate addition and measured after 30 mins by DTNB reagent based Ellman's method
[2] = biological target: T1, Histamine H3 receptor (Homo sapiens, UniProt Q9Y5N1); assay: Inhibition of human H3 receptor at 10 uM incubated for 90 mins by scintillation counting method relative to control
[3] = biological target: T2, D(3) dopamine receptor (Homo sapiens, UniProt P35462); assay: Inhibition of human D3 receptor expressed in CHO cells at 10 uM by scintillation counting method relative to control; assay type: cell-based
[4] = biological target: Cholinesterase (Equus caballus) (UniProt P81908); assay: Inhibition of equine BChE at 100 uM using acetylthiocholine chloride as substrate preincubated for 15 mins followed by substrate addition and measured after 30 mins by DTNB reagent based Ellman's method relative to control; conditions: time 45.0 min
[5] = biological target: T1, Histamine H3 receptor; assay: Binding affinity to human H3 receptor assessed as inhibition constant incubated for 90 mins by scintillation counting method
[6] = biological target: T2, D(3) dopamine receptor; assay: Binding affinity to human D3 receptor expressed in CHO cells assessed as inhibition constant by scintillation counting method; assay type: cell-based
[7] = biological target: T1, Histamine H3 receptor; assay: Inhibition of human H3 receptor at 1 uM incubated for 90 mins by scintillation counting method relative to control
[8] = biological target: T2, D(3) dopamine receptor; assay: Inhibition of human D3 receptor expressed in CHO cells at 1 uM by scintillation counting method relative to control; assay type: cell-based
[9] = biological target: T1, Histamine H3 receptor; assay: Inhibition of human H3 receptor incubated for 90 mins by scintillation counting method relative to control
[10] = biological target: Acetylcholinesterase (Electrophorus electricus, UniProt O42275); assay: Inhibition of electrical eel AChE using acetylthiocholine chloride as substrate preincubated for 15 mins followed by substrate addition and measured after 30 mins by DTNB reagent based Ellman's method
[11] = biological target: T2, D(3) dopamine receptor; assay: Inhibition of human D3 receptor expressed in CHO cells assessed as inhibition constant by scintillation counting method; assay type: cell-based

Acetylcholinesterase, sequence (O42275 whole entry): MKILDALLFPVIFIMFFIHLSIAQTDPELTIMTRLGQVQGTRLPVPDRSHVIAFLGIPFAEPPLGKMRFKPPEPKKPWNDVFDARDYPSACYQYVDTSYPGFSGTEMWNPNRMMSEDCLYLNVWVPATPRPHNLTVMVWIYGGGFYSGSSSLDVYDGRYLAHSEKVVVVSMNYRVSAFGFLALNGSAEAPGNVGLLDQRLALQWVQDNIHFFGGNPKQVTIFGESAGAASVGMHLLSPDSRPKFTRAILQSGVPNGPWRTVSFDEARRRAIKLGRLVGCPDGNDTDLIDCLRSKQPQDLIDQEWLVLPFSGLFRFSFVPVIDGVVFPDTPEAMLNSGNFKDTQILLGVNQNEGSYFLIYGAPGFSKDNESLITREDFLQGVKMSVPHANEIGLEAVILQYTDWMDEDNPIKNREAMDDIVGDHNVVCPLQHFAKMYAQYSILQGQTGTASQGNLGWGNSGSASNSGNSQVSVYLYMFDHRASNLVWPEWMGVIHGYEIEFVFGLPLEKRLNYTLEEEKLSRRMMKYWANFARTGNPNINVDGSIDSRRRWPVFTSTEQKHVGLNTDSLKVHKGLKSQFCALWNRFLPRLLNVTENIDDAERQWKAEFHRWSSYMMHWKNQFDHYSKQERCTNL
T1 sequence (Q9Y5N1 whole entry): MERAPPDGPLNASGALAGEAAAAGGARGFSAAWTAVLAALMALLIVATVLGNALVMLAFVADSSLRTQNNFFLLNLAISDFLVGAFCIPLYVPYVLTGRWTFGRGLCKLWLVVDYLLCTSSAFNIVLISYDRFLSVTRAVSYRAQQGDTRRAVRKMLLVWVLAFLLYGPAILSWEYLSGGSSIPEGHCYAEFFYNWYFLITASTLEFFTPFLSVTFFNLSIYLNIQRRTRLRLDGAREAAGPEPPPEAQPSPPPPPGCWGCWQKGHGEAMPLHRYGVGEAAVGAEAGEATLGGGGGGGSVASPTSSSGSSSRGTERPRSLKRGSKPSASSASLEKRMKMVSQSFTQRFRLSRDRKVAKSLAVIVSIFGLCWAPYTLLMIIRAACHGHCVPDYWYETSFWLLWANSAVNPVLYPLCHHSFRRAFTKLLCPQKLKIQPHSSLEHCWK
Cholinesterase (Equus caballus), sequence (P81908 whole entry): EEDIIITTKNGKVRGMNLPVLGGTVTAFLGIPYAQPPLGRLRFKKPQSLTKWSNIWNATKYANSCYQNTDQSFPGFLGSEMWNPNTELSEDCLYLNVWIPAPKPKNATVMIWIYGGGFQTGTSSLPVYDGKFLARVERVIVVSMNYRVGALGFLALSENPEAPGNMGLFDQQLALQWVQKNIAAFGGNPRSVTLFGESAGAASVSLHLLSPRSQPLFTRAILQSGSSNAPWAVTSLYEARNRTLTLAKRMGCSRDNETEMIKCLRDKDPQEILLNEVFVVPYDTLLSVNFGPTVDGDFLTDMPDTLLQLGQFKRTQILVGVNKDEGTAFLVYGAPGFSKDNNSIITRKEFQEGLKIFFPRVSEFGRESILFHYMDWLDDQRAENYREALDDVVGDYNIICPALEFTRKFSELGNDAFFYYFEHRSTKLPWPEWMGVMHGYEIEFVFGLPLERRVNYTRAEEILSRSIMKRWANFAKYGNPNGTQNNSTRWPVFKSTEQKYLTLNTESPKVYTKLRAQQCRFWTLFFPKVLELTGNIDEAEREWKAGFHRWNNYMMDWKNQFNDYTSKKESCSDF
Cholinesterase, sequence (P81908 whole entry): as above
T2 sequence (P35462 whole entry): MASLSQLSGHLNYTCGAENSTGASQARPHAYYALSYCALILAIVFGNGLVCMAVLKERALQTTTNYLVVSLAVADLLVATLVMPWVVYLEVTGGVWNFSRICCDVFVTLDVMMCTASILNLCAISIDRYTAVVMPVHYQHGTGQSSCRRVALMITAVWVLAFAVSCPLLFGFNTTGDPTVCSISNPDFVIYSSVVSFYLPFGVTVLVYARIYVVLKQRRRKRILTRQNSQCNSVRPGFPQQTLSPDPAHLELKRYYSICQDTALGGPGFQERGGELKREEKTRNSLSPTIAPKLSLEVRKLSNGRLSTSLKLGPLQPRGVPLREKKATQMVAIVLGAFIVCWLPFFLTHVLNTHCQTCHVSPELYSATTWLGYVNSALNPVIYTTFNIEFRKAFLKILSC

`CN1CCN(CCCOc2ccc3ccccc3c2)CC1` was tested. Which IC50 [1] did it give?
Its IC50 is 26.3 µM.

And the inhibition [2]?
Its inhibition is 80.5%.

What about the inhibition [3] of the same molecule?
The inhibition was 22.8%.

And the inhibition [4]?
Its inhibition is 70%.

And the Ki [5]?
Its Ki is 2.8 µM.

What about the Ki [6] of the same molecule?
The Ki was 0.0007 µM.

For `CN(C)C(=O)Oc1cccc([N+](C)(C)C)c1` [NEOSTIGMINE], which IC50 [1] is on record?
Its IC50 is 0.16 µM.

What about the inhibition [4] of the same molecule?
The inhibition was > 95%.

What does the source list for `O=C(OCCN1CCN(c2ccccc2)CC1)c1ccc2ccccc2c1`?
inhibition [2]: 61.5%; inhibition [3]: 32.8%; inhibition [4]: 36.5%

Which results are given for `CN1CCN(CCOC(=O)c2ccc3ccccc3c2)CC1`?
IC50 [1]: 57.5 µM; inhibition [2]: 78.2%; inhibition [3]: 53.7%; inhibition [4]: 74.8%; Ki [5]: 2.2 µM; Ki [6]: > 0.01 µM

`O=C(OCCCN1CCN(c2ccccc2)CC1)c1cccc2ccccc12` was tested. Which inhibition [4] did it give?
Its inhibition is < 10%.

What does the source list for `O=C(NCCCN1CCN(c2ccncc2)CC1)c1cc2ccccc2o1`?
IC50 [1]: 85.1 µM; inhibition [7]: 80.5%; inhibition [8]: 23.5%; inhibition [4]: 54.5%; Ki [5]: 0.91 µM; Ki [6]: > 0.01 µM

`O=C(OCCN1CCN(c2ccccc2)CC1)c1cccc2ccccc12` was tested. Which inhibition [2] did it give?
Its inhibition is 71.3%.

And the inhibition [3]?
Its inhibition is 52.8%.

What about the inhibition [4] of the same molecule?
The inhibition was 24.1%.

Which inhibition [4] does the source give for `c1ccc(N2CCN(CCCOc3cccc4ccccc34)CC2)cc1` here?
The inhibition was 22.7%.

What does the source list for `O=C(OCCCN1CCN(c2ccccc2)CC1)c1ccc2ccccc2c1`?
inhibition [2]: 40.8%; inhibition [3]: 65.3%; inhibition [4]: 16.6%

Which inhibition [2] does the source give for `CN1CCN(CCOC(=O)c2cccc3ccccc23)CC1` here?
The inhibition was 69%.

And the inhibition [3]?
The inhibition was 49.7%.

What about the inhibition [4] of the same molecule?
The inhibition was 38.3%.

With `O=C(OCCCN1CCN(c2ccccc2)CC1)c1cc2ccccc2o1` as the molecule, how does the inhibition [4] read?
Its inhibition is 46.8%.

For `Clc1ccc(CCCOCCCN2CCCCC2)cc1`, which inhibition [9] is on record?
The inhibition was 99.8%.

`CC(C)N1CCN(CCCCOc2ccc3c(c2)NC(=O)CC3)CC1` was tested. Which IC50 [10] did it give?
Its IC50 is 1.6 µM.

What about the IC50 [1] of the same molecule?
The IC50 was 16.7 µM.

Which results are given for `CN1CCN(CCCOC(=O)c2cc3ccccc3o2)CC1`?
inhibition [2]: 82.3%; inhibition [3]: 9%; inhibition [4]: 31.7%; Ki [5]: 3.3 µM; Ki [6]: > 0.01 µM

For `CN1CCN(CCCOc2cccc3ccccc23)CC1`, which IC50 [1] is on record?
Its IC50 is 78.5 µM.

What about the inhibition [2] of the same molecule?
The inhibition was 70%.

What about the inhibition [3] of the same molecule?
Its inhibition is 47.8%.

What about the inhibition [4] of the same molecule?
Its inhibition is 60.2%.

Which IC50 [1] does the source give for `CN1CCN(CCOc2cccc3ccccc23)CC1` here?
The IC50 was 58.9 µM.

And the inhibition [2]?
Its inhibition is 21.3%.

What about the inhibition [3] of the same molecule?
Its inhibition is 33.5%.

And the inhibition [4]?
Its inhibition is 64.9%.

Which IC50 [10] does the source give for `c1ccc2c(OCCN3CCN(c4ccncc4)CC3)cccc2c1` here?
The IC50 was 53.7 µM.

And the IC50 [1]?
The IC50 was 40.7 µM.

And the inhibition [7]?
Its inhibition is 54%.

And the inhibition [8]?
The inhibition was 37.7%.

What about the inhibition [4] of the same molecule?
The inhibition was 65.4%.

For `c1ccc(N2CCN(CCCOc3ccc4ccccc4c3)CC2)cc1`, which IC50 [1] is on record?
Its IC50 is 53.7 µM.

What about the inhibition [7] of the same molecule?
The inhibition was 36.8%.

What about the inhibition [8] of the same molecule?
Its inhibition is 80.5%.

What about the inhibition [4] of the same molecule?
The inhibition was 65.7%.

What about the Ki [5] of the same molecule?
Its Ki is > 10 µM.

What about the Ki [6] of the same molecule?
Its Ki is 0.00034 µM.

Which results are given for `c1ccc(N2CCN(CCOc3ccc4ccccc4c3)CC2)cc1`?
inhibition [7]: 23.3%; inhibition [8]: 45%; inhibition [4]: 17.5%

Which IC50 [10] does the source give for `O=C(OCCCN1CCN(c2ccncc2)CC1)c1cc2ccccc2o1` here?
The IC50 was 57.2 µM.

What about the IC50 [1] of the same molecule?
The IC50 was 97.7 µM.

What about the inhibition [7] of the same molecule?
Its inhibition is 88.8%.

What about the inhibition [8] of the same molecule?
Its inhibition is 18%.

What about the inhibition [4] of the same molecule?
Its inhibition is 49.9%.

And the Ki [5]?
Its Ki is 0.27 µM.

And the Ki [6]?
Its Ki is > 0.01 µM.

What does the source list for `CN1CCN(CCCOC(=O)c2cccc3ccccc23)CC1`?
inhibition [2]: 83.8%; inhibition [3]: 71.5%; inhibition [4]: 50.6%; Ki [5]: 3.7 µM; Ki [6]: > 0.01 µM

With `O=C(NCCCCN1CCN(c2ccccc2)CC1)c1ccc2ccccc2c1` as the molecule, how does the Ki [11] read?
The Ki was 0.00092 µM.

With `c1ccc(N2CCN(CCOc3cccc4ccccc34)CC2)cc1` as the molecule, how does the inhibition [2] read?
The inhibition was 39.8%.

And the inhibition [3]?
Its inhibition is 34.5%.

And the inhibition [4]?
The inhibition was 26%.

How did the IC50 [10] turn out when `CN1CCN(CCCOC(=O)c2ccc3ccccc3c2)CC1` was run?
The IC50 was 97.8 µM.

What about the IC50 [1] of the same molecule?
Its IC50 is 43.7 µM.

And the inhibition [2]?
Its inhibition is 96.3%.

And the inhibition [3]?
The inhibition was 77.7%.

And the inhibition [4]?
The inhibition was 85.1%.

And the Ki [5]?
The Ki was 1.1 µM.

And the Ki [6]?
Its Ki is 0.0031 µM.

`CN1CCN(CCOc2ccc3ccccc3c2)CC1` was tested. Which inhibition [2] did it give?
Its inhibition is 39.3%.

What about the inhibition [3] of the same molecule?
The inhibition was 15.2%.

And the inhibition [4]?
Its inhibition is 48.4%.
